For 22 molecules, IC50 results are on record in ChEMBL document CHEMBL4261528, “Synthesis, molecular modeling and biological evaluation of aza-flavanones as α-glucosidase inhibitors” (Medchemcomm, 2017).

The first test can be described thus: Inhibition of baker's yeast alpha-glucosidase preincubated for 15 to 20 mins followed by p-nitrophenyl-alpha-D-glucopyranoside substrate addition measured after 45 to 60 mins by spectrophotometric method.
Conditions: not given
Also noted: species or system Saccharomyces cerevisiae.
As usually defined, the IC50 is the midpoint of a concentration-inhibition curve. `O=C1CC(c2ccc(Br)cc2)Nc2ccccc21` (configuration not stated): the IC50 result is listed as “Nd(Insoluble)”.

The test is the same for the next values; noted with them: read-out: IC50.
In the case of `O=C1CC(c2ccc(C(F)(F)F)cc2)Nc2ccccc21` (configuration not stated), the IC50 was 53.5 µM. For `CCCC1CC(=O)c2ccccc2N1` (configuration not stated), the IC50 stood at 190 µM.

Turning to `O=C1CC(c2ccsc2)Nc2ccccc21` (configuration not stated), the IC50 turned out to be 72.4 µM.

On to `CCCCC1CC(=O)c2ccc(F)cc2N1` (configuration not stated), for which the IC50 turned out to be 134 µM. Regarding `C[C@H]1O[C@H](O[C@H]2[C@H](O)[C@@H](O)[C@@H](O[C@H]3[C@H](O)[C@@H](O)C(O)O[C@@H]3CO)O[C@@H]2CO)[C@H](O)[C@@H](O)[C@@H]1N[C@H]1C=C(CO)[C@@H](O)[C@H](O)[C@H]1O` (some centres not stated) [ACARBOSE], the IC50 came out at 360 µM. Turning to `O=C1CC(c2ccc(F)cc2F)Nc2ccccc21` (configuration not stated), the IC50 amounted to 211 µM. Take `O=C1CC(c2ccoc2)Nc2ccccc21` (configuration not stated): the IC50 amounted to 352 µM. Still for that read-out and setting: then `COc1ccc(C2CC(=O)c3ccccc3N2)cc1` (configuration not stated), with 303 µM; and `O=C1CC(c2ccncc2)Nc2ccccc21` (configuration not stated), with 773 µM; and `O=C1CC(c2ccccc2)Nc2ccccc21` (configuration not stated) [Aza-flavanone], with 686 µM.

For the molecule `O=C1CC(C2CC2)Nc2ccccc21` (configuration not stated), the IC50 was determined as 284 µM. As to `Cc1ccc(C2CC(=O)c3ccccc3N2)cc1C` (configuration not stated), the IC50 came to 606 µM. Turning to `CCC1CC(=O)c2ccccc2N1` (configuration not stated), the IC50 is 272 µM. `O=C1CC(C2CCCO2)Nc2ccccc21` (configuration not stated): the IC50 came out at 667 µM. Same read-out and setting: then `CCCCC1CC(=O)c2cc(OC)ccc2N1` (configuration not stated), with 683 µM; and `O=C1CC(c2cccs2)Nc2ccccc21` (configuration not stated), with 382 µM; and `OCC(CO)N[C@H]1C[C@](O)(CO)[C@@H](O)[C@H](O)[C@H]1O` [VOGLIBOSE], with 325 µM. On to `OCCN1C[C@H](O)[C@@H](O)[C@H](O)[C@H]1CO` [MIGLITOL], for which the half-inhibitory concentration (IC50) came out at 462 µM. Same read-out and setting: with `O=C1CC(C2CCOC2)Nc2ccccc21` (configuration not stated) the figure was 867 µM. As for `O=C1CC(C2CCCCC2)Nc2ccccc21` (configuration not stated), the IC50 was found to be 494 µM. In the case of `O=C1CC(c2ccco2)Nc2ccccc21` (configuration not stated), the IC50 was 487 µM.
